Like-named read-outs stand apart in the source and are kept apart here.
How the values were obtained:
[1] = Metabolites in urine and melanoma by RP-HPLC; assay type: in vivo, C57 mice; conditions: urine, 2 h post-injection
Procedure: The mouse used for the imaging study (2 h post-injection) described above was euthanized and the urine was collected for identifying the metabolites. The urinary sample was centrifuged at 16,000 g for 5 min prior to the HPLC analysis. The radioactive metabolite in the urine was analyzed by injecting aliquots of urine into the HPLC. A 20-minute gradient of 18-28% acetonitrile/20 mM HCl was used for the urine analysis.
Both melanoma and urine were collected from the mouse used for SPECT/CT imaging to analyze the metabolites of ^111In-DOTA-GGNle-CycMSHhex in melanoma and urine. The tumor was homogenized by a VWR homogenizer for 5 mins. Equal volume of ethanol was added into the tumor sample. The tumor sample was vortexed and then centrifuged at 16,000 g for 5 mins. The supernatant was transferred into a glass test tube and purged with N2 gas for 20 mins to remove the ethanol. Aliquots of the supernatant were injected into HPLC. The urinary sample was directly centrifuged at 16,000 g for 5 mins prior to the HPLC analysis. Thereafter, aliquots of the urine were injected into HPLC. The HPLC gradient described above was used for the analyses of metabolites.

[2] = system: B16/F1 melanoma; experiment: Biodistribution in B16/F1 melanoma-bearing C57 mice; assay type: in vivo
Procedure: All the animal studies were conducted in compliance with Institutional Animal Care and Use Committee approval. The mice were housed five animals per cage in sterile micro-isolator cages in a temperature- and humidity-controlled room with a 12-h light/12-h dark schedule. […] C57 mice were subcutaneously inoculated on the right flank with 1×10^6 B16/F1 cells. The weight of tumors reached approximately 0.2 g 10 days post cell inoculation. […] Groups of 5 mice were sacrificed at 0.5, 2, 4 and 24 h post-injection, and tumors and organs of interest were harvested, weighed and counted. Blood values were taken as 6.5% of the whole-body weight. […] The mice were sacrificed at 2 h post-injection. The tumor and organs of interest were harvested, weighed and counted.
All animal studies were conducted in compliance with Institutional Animal Care and Use Committee approval. The pharmacokinetics of ^111In-DOTA-GGNle-CycMSHhex and ^111In-DOTA-GENle-CycMSHhex were determined in B16/F1 melanoma-bearing C57 female mice (Harlan, Indianapolis, Ind.). The C57 mice were subcutaneously inoculated with 1×10^6 B16/F1 cells on the right flank for each mouse to generate B16/F1 melanomas. Ten days post inoculation, the tumor weights reached approximately 0.2 g. Each melanoma-bearing mouse was injected with 0.037 MBq of ^111In-DOTA-GGNle-CycMSHhex or ^111In-DOTA-GENle-CycMSHhex via the tail vein. Groups of 5 mice were sacrificed at 0.5, 2, 4 and 24 h post-injection, and tumors and organs of interest were harvested, weighed and counted. Blood values were taken as 6.5% of the whole-body weight. The specificities of the tumor uptake of ^111In-DOTA-GGNle-CycMSHhex and ^111In-DOTA-GENle-CycMSHhex were determined by co-injecting 10 μg (6.07 nmol) of unlabeled NDP-MSH which is a linear α-MSH peptide analogue with picomolar MC1 receptor binding affinity.

[3] = In vitro serum stability in mouse serum; assay type: in vitro ADME; conditions: 37° C., 24 h
Procedure: After the incubation, 10 μL of 0.5% EDTA aqueous solution was added into the reaction vial to scavenge potential unbound ^111In^3+ ions. The radiolabeled peptide was purified to single species by Waters RP-HPLC (Milford, Mass.) on a Grace Vydac C-18 reverse phase analytical column (Deerfield, Ill.) using a 20-minute gradient of 18-28% acetonitrile in 20 mM HCl aqueous solution with a flow rate of 1.0 mL/min. Purified peptide sample was purged with N2 gas for 20 minutes to remove the acetonitrile. The pH of final solution was adjusted to 7.4 with 0.1 N NaOH and sterile normal saline for animal studies.
Briefly, 50 μL of ^111InCl3 (37-74 MBq in 0.05 M HCl aqueous solution), 10 μL of 1 mg/mL peptide aqueous solution and 400 μL of 0.5 M NH4OAc (pH 4.5) were added into a reaction vial and incubated at 75° C. for 45 mins. After the incubation, 10 μL of 0.5% EDTA (ethylenediaminetetraacetic acid) aqueous solution was added into the reaction vial to scavenge potential unbound ^111In^3+ ions. The radiolabeled complexes were purified to single species by Waters RP-HPLC (Milford, Mass.) on a Grace Vydac C-18 reverse phase analytical column (Deerfield, Ill.) using the following gradient at a 1 mL/min flowrate. The mobile phase consisted of solvent A (20 mM HCl aqueous solution) and solvent B (100% CH3CN). The gradient was initiated and kept at 82:18 A/B for 3 mins followed by a linear gradient of 82:18 A/B to 72:28 A/B over 20 mins. Then, the gradient was changed from 72:28 A/B to 10:90 A/B over 3 mins followed by an additional 5 mins at 10:90 A/B. Thereafter, the gradient was changed from 10:90 AB to 82:18 AB over 3 mins. Each purified peptide sample was purged with N2 gas for 20 mins to remove the acetonitrile. The pH of the final solution was adjusted to 7.4 with 0.1 N NaOH and sterile saline for animal studies. In vitro serum stability of ^111In-DOTA-GGNle-CycMSHhex and ^111In-DOTA-GENle-CycMSHhex were determined by incubation in mouse serum at 37° C. for 24 h and monitored for degradation by RP-HPLC.

[4] = system: B16/F1 melanoma; conditions: literature, cited from earlier work

## CCCC[C@H](NC(=O)CN1CCN(CC(=O)O)CCN(CC(=O)O)CCN(CC(=O)O)CC1)C(=O)N[C@H]1CC(=O)NCCCC[C@@H](C(N)=O)NC(=O)[C@H](Cc2c[nH]c3ccccc23)NC(=O)[C@H](CCCNC(=N)N)NC(=O)[C@@H](Cc2ccccc2)NC(=O)[C@H](Cc2c[nH]cn2)NC1=O [^111In-DOTA-Nle-CycMSHhex, metal not drawn]
[1]
  urinary metabolites by HPLC: remained intact
[2]; 10 μg NDP-MSH, 2 h after dose administration
  tumor uptake with NDP-MSH co-injection as percent of tumor uptake without: 4.2%
[2]; 0.5 h post-injection
  Kidneys uptake: 16.20±4.32 % ID/g
  Tumor uptake: 24.94±4.58 % ID/g
[2]; 2 h post-injection
  Tumor uptake: 19.39±2.72 % ID/g
  reduction of kidney uptake by L-lysine co-injection: 30%
  renal uptake as percent of that of ^111In-DOTA-GlyGlu-CycMSH: 72.8%
  tumor uptake, times that of ^111In-DOTA-GlyGlu-CycMSH: 1.86 times
[2]; 4 h post-injection
  Tumor uptake: 17.01±2.54 % ID/g
  liver uptake as percent of that of ^99mTc(CO)3-pz-βAla-Nle-cyclo[Asp-His-D-Phe-Arg-Trp-Lys]-NH2: 7.5%
  renal uptake as percent of that of ^99mTc(CO)3-pz-βAla-Nle-cyclo[Asp-His-D-Phe-Arg-Trp-Lys]-NH2: 31.1%
  renal uptake as percent of that of ^111In-DOTA-GlyGlu-CycMSH: 82.4%
  tumor uptake, times that of ^99mTc(CO)3-pz-βAla-Nle-cyclo[Asp-His-D-Phe-Arg-Trp-Lys]-NH2: 1.5 times
[2]; 24 h post-injection
  Kidneys uptake: 9.31±0.91 % ID/g
  Tumor uptake: 10.53±1.11 % ID/g
  tumor activity at 2 h remaining in tumors at 24 h: 54.3%
[3]
  serum stability by RP-HPLC: stable
[4]; 0.5 h post-injection
  tumor (melanoma) uptake: 24.94±4.58 % ID/g
[4]; 2 h post-injection
  tumor (melanoma) uptake: 19.39±1.65 % ID/g
[4]; 4 h post-injection
  tumor (melanoma) uptake: 17.01±2.54 % ID/g

Source: US9493537B2, “Compounds with reduced ring size for use in diagnosing and treating melanoma, including metastatic melanoma and methods related to same” (STC.UNM, priority 2009, dated 2016)
